Assay results from patent US10828315B2 (Madrigal Pharmaceuticals, Inc., priority 2013, dated 2020).
“And” between values parts separate entries of the source, which are not always exact repeats. Identical values can stand only once. Like-named read-outs stand apart in the source and are kept apart here.

Assays:
[1] = test system: Human H3122 NSCLC cells; test: Cell viability assay (CellTiter-Glo) in H3122 cells (Example 4); assay type: cell-based; conditions: NCI-H3122
Experimental: Human H3122 NSCLC cells were obtained and grown in RPMI in the presence of fetal bovine serum (10%), 2 mM L-glutamine and antibiotics (100 IU/ml penicillin and 100 μg/ml streptomycin, Sigma Aldrich.) Cells were maintained at 37° C., 5% CO2 atmosphere.
Cell viability was measured using the CellTiter-Glo® assay (Promega). In brief, cells were plated in 96-well plates in triplicate at optimal seeding density (determined empirically) and incubated at 37° C., 5% CO2 atmosphere for 24 hr prior to the addition of drug or vehicle (0.3% DMSO) to the culture medium. At the end of the assay, CellTiter-Glo was added to the wells per manufacturer's recommendation, shaken for two minutes and incubated for 10 minutes at room temperature. Luminescence (0.1 sec) was measured with a Victor II microplate reader (Perkin Elmer) and the resulting data were used to calculate cell viability, normalized to vehicle control.
Cells as described above were treated with exemplary SDC-TRAPs and their viability determined as above as well. The following table illustrates the results.

[2] = test system: H 3211 NSLC cells; test: IC50 of continuous and pulsed exposure (Examples 9 and 10); assay type: cell-based
[3] = Artificial membrane permeability assay (PAMPA)
[4] = test system: HER2; test: HER2 degradation in BT-474 cells (Example 3, Methods 1 and 2); assay type: cell-based, human
Text: This example illustrates how a HER2 degradation assay may be used as a test to determine and select Hsp90-targeting moieties suitable for use in SDC-TRAPs of the invention, and further illustrates the ability of SDC-TRAPs to target cells preferentially expressing Hsp90. Such a test may further be used to determine the Hsp90 binding ability of SDC-TRAPs of the invention, as well as through competitive binding assays and cell-based Hsp90 client protein degradation assays known in the art.
After treatment, each cytoplasmic sample is prepared from 1×10^6 cells by incubation of cell lysis buffer (#9803, Cell Signaling Technology) on ice for 10 minutes. The resulting supernatant used as the cytosol fractions is dissolved with sample buffer for SDS-PAGE and run on a SDS-PAGE gel, blotted onto a nitrocellulose membrane by using semi-dry transfer. Non-specific binding to nitrocellulose is blocked with 5% skim milk in TBS with 0.5% Tween at room temperature for 1 hour, then probed with anti-HER2/ErB2 mAb (rabbit IgG, #2242, Cell Signaling) and anti-Tubulin (T9026, Sigma) as housekeeping control protein. HRP-conjugated goat anti-rabbit IgG (H+L) and HRP-conjugated horse anti-mouse IgG (H+L) are used as secondary Ab (#7074#7076, Cell Signaling) and LumiGLO reagent, 20× Peroxide (#7003, Cell Signaling) is used for visualization. The Hsp90 client protein HER2 is degraded when cells are treated with Hsp90-targeting moieties or SDC-TRAPs of the invention.
BT-474 cells are plated in the interior 60 wells of a 96 well black clear bottom plate (20,000 cells/well) in DMEM medium, with DMEM media in the surrounding 36 wells, and incubated at 37° C. with 5% CO2 overnight. On the second day, concentration response curve source plates are produced (10 point, 3-fold dilution of compounds in DMSO) followed by a 1:30 dilution in an intermediate dilution plate containing DMEM. Compound is transferred from the intermediate plate to the cell plate at a dilution of 1:10. The cells are then incubated at 37° C. with 5% CO2 for 24 hours.
Cells are then fixed in 4% phosphate-buffered paraformaldehyde for 30 minutes at room temperature and then permeabilized by washing five times with 0.1% Triton X-100 in PBS for 5 minutes at room temperature on a shaker. […] Cells are washed five times with 0.1% Tween-20 in PBS for 5 minutes at room temperature on a shaker and incubated with fluorescently-labeled secondary antibody (LI-COR, #926-32211) diluted 1:1000 in blocking buffer, and DRAQ5 nuclear stain (Biostatus Limited, # DRAQ5) diluted 1:10,000, at room temperature on a shaker for 1 hour. Cells are washed 5 times with 0.1% Tween-20 in PBS for 5 minutes at room temperature on a shaker and imaged on a LI-COR Odyssey imaging station. The raw data is normalized to DRAQ5 and the HER2 EC50 is calculated using XLfit™.

[5] = test system: HER2; test: HER2 degradation assay with BT-474 cell line (Example 12, FACS); assay type: cell-based, human
[6] = Mouse plasma stability protocol, up to 1 h (Examples 16-18)
[7] = Stability in cell culture media (Example 18)
Experimental: 98 μL of DMEM+10% FBS, +1% P/S, +1.5 g/L sodium bicarbonate cell culture media was mixed with 2 μL of DMSO and aliquotted into 96-well plates at 250 μL per 0, 1, 2, and 18 hour time point.
3×50 μL media samples in 96 were held in 96-well plates at −80° C. until the last time point was extracted. 200 μL of methanol containing IS was added and mixed by vortex at 1500 rpm for 1.5 minutes at room temperature. The samples were centrifuged at 4400 rpm for 10 minutes at 8° C.

[8] = read-out: IC50, 72h-continuous, 7.5 × 10^3 cells/well, three replicate columns
[9] = read-out: IC50, 1h-pulse/71h-compound free, 7.5 × 10^3 cells/well, two replicate columns

CCc1c2c(nc3ccc(OCC(=O)NCCn4ccc5cc(-n6c(O)nnc6-c6cc(C(C)C)c(O)cc6O)ccc54)cc13)-c1cc3c(c(=O)n1C2)COC(=O)C3(O)CC (stereo not drawn) [SDC-TRAP-0023, 2-((4,11-diethyl-4-hydroxy-3,14-dioxo-3,4,12,14-tetrahydro-1H-pyrano[3′,4′:6,7]indolizino[1,2-b]quinolin-9-yl)oxy)-N-(2-(5-(3-(2,4-dihydroxy-5-isopropylphenyl)-5-hydroxy-4H-1,2,4-triazol-4-yl)-1H-indol-1-yl)ethyl)acetamide]
IC50 [1]: 137 nM | IC50 [2, 8]: < 12 nM

CC(C)c1cc(-c2nnc(O)n2-c2ccc3c(ccn3CCN(C)C(=O)CCCC(=O)Nc3cccc4c3CN(C3CCC(=O)NC3=O)C4=O)c2)c(O)cc1O (stereo not drawn) [SDC-TRAP-0018, N1-(2-(5-(3-(2,4-dihydroxy-5-isopropylphenyl)-5-hydroxy-4H-1,2,4-triazol-4-yl)-1H-indol-1-yl)ethyl)-N5-(2-(2,6-dioxopiperidin-3-yl)-1-oxoisoindolin-4-yl)-N1-methylglutaramide]
Mass Retention ([3]; incubation 5 h, first table): 14.7% | IC50 [1]: 620 nM

CCc1c2c(nc3ccc(OC(=O)N(C)CCN(C)C(=O)c4cc5cc(-n6c(O)nnc6-c6cc(C(C)C)c(O)cc6O)ccc5n4C)cc13)-c1cc3c(c(=O)n1C2)COC(=O)C3(O)CC (stereo not drawn) [SDC-TRAP-0010]
IC50 [1]: 234 nM | IC50 [2, 8]: 144 nM and 327 nM and 232 nM | IC50 [4]: > 5000 nM | IC50 [5]: > 5000 nM

CCc1c2c(nc3ccc(OCC(=O)N(C)CCn4ccc5cc(-n6c(O)nnc6-c6cc(C(C)C)c(O)cc6O)ccc54)cc13)-c1cc3c(c(=O)n1C2)COC(=O)C3(O)CC (stereo not drawn) [SDC-TRAP-0027, 2-((4,11-diethyl-4-hydroxy-3,14-dioxo-3,4,12,14-tetrahydro-1H-pyrano[3′,4′:6,7]indolizino[1,2-b]quinolin-9-yl)oxy)-N-(2-(5-(3-(2,4-dihydroxy-5-isopropylphenyl)-5-hydroxy-4H-1,2,4-triazol-4-yl)-1H-indol-1-yl)ethyl)-N-methylacetamide]
IC50 [1]: 1350 nM | IC50 ([2]; 72 h, read-out: IC50, 72h-continuous, 7.5 × 10^3 cells/well, three replicate columns): 984 nM

CC(C)c1cc(-c2nnc(O)n2-c2ccc3c(ccn3CCOCCNC(=O)c3ccc(CCc4c[nH]c5nc(N)[nH]c(=O)c45)cc3)c2)c(O)cc1O [SDC-TRAP-0020, 4-(2-(2-amino-4-oxo-4,7-dihydro-3H-pyrrolo[2,3-d]pyrimidin-5-yl)ethyl)-N-(2-(2-(5-(3-(2,4-dihydroxy-5-isopropylphenyl)-5-hydroxy-4H-1,2,4-triazol-4-yl)-1H-indol-1-yl)ethoxy)ethyl)benzamide]
IC50 [1]: 1740 nM

CCc1c2c(nc3ccc(OC(=O)N(C)CCOCCn4ccc5cc(-n6c(O)nnc6-c6cc(C(C)C)c(O)cc6O)ccc54)cc13)-c1cc3c(c(=O)n1C2)COC(=O)C3(O)CC (stereo not drawn) [SDC-TRAP-0029, 4,11-diethyl-4-hydroxy-3,14-dioxo-3,4,12,14-tetrahydro-1H-pyrano[3′,4′:6,7]indolizino[1,2-b]quinolin-9-yl (2-(2-(5-(3-(2,4-dihydroxy-5-isopropylphenyl)-5-hydroxy-4H-1,2,4-triazol-4-yl)-1H-indol-1-yl)ethoxy)ethyl)(methyl)carbamate]
% Remaining (1 h) ([6]; % Remaining of parent after 1 h incubation in mouse plasma at 37° C. (10 μM)): 47.0% | % Remaining (1 h, 37° C.) ([6]; mouse plasma, 1 h, 37° C.): 47% | Mouse (10 μM) % Remaining 1 h (37° C.)§ ([6]; mouse plasma, data from single parent peak): 44% | Mouse (10 μM) % Remaining 1 h (37° C.)* ([6]; mouse plasma, sum of both peaks): 47% | Media (5 μM) % Remaining 19 h (37° C.) [7]: 29% | Media (5 μM) % Remaining 1 h (37° C.)§ ([7]; data from single parent peak): 43% | Media (5 μM) % Remaining 1 h (37° C.)* ([7]; sum of both peaks): 46% | Mass Retention ([3]; same protocol, second table): 84.0% | IC50 [1]: 125 nM | IC50 ([2]; 1 h, read-out: IC50, 1h-pulse/71h-compound free, 7.5 × 10^3 cells/well, two replicate columns): > 3000 nM | IC50 [2, 9]: > 3000 nM | IC50 [4]: 1600 nM | IC50 [5]: 1370 nM

CC(C)c1cc(-c2nnc(O)n2-c2ccc3c(ccn3CCC(=O)Nc3cccc4c3CN(C3CCC(=O)NC3=O)C4=O)c2)c(O)cc1O (stereo not drawn) [SDC-TRAP-0017, 3-(5-(3-(2,4-dihydroxy-5-isopropylphenyl)-5-hydroxy-4H-1,2,4-triazol-4-yl)-1H-indol-1-yl)-N-(2-(2,6-dioxopiperidin-3-yl)-1-oxoisoindolin-4-yl)propanamide]
IC50 [1]: > 3000 nM

CC(C)c1cc(-c2nnc(O)n2-c2ccc3c(ccn3CCOCCNC(=O)CCCC(=O)Nc3cccc4c3CN(C3CCC(=O)NC3=O)C4=O)c2)c(O)cc1O (stereo not drawn) [SDC-TRAP-0015, N1-(2-(2-(5-(3-(2,4-dihydroxy-5-isopropylphenyl)-5-hydroxy-4H-1,2,4-triazol-4-yl)-1H-indol-1-yl)ethoxy)ethyl)-N5-(2-(2,6-dioxopiperidin-3-yl)-1-oxoisoindolin-4-yl)glutaramide]
IC50 [1]: 1270 nM | IC50 [2, 8]: 796 nM

CCc1c2c(nc3ccc(O)cc13)-c1cc3c(c(=O)n1C2)COC(=O)C3(CC)OC(=O)CCCNC(=O)c1cc2cc(-n3c(O)nnc3-c3cc(C(C)C)c(O)cc3O)ccc2n1C (stereo not drawn) [SDC-TRAP-0024, 4,11-diethyl-9-hydroxy-3,14-dioxo-3,4,12,14-tetrahydro-1H-pyrano[3′,4′:6,7]indolizino[1,2-b]quinolin-4-yl 4-(5-(3-(2,4-dihydroxy-5-isopropylphenyl)-5-hydroxy-4H-1,2,4-triazol-4-yl)-1-methyl-1H-indole-2-carboxamido)butanoate]
IC50 [1]: 99 nM | IC50 [2, 9]: 697 nM and 2210 nM | IC50 [2, 8]: < 12 nM and 118 nM and 104 nM | IC50 [4]: > 5000 nM

CC(C)c1cc(-c2nnc(O)n2-c2ccc3c(ccn3CCN(C)C(=O)c3ccc(CCc4c[nH]c5nc(N)[nH]c(=O)c45)cc3)c2)c(O)cc1O [SDC-TRAP-0019, 4-(2-(2-amino-4-oxo-4,7-dihydro-3H-pyrrolo[2,3-d]pyrimidin-5-yl)ethyl)-N-(2-(5-(3-(2,4-dihydroxy-5-isopropylphenyl)-5-hydroxy-4H-1,2,4-triazol-4-yl)-1H-indol-1-yl)ethyl)-N-methylbenzamide]
IC50 [1]: 393 nM

CC(C)c1cc(-c2nnc(O)n2-c2ccc3c(ccn3CCN(C)C(=O)NCC(=O)Nc3cccc4c3CN(C3CCC(=O)NC3=O)C4=O)c2)c(O)cc1O (stereo not drawn) [SDC-TRAP-0021, 2-(3-(2-(5-(3-(2,4-dihydroxy-5-isopropylphenyl)-5-hydroxy-4H-1,2,4-triazol-4-yl)-1H-indol-1-yl)ethyl)-3-methylureido)-N-(2-(2,6-dioxopiperidin-3-yl)-1-oxoisoindolin-4-yl)acetamide]
IC50 [1]: 717 nM
